Measured values: publication PMC8129988 (Inorganic Chemistry Frontiers, 2021)
Counter-ions that a name gives are not always drawn. Like-named read-outs stand apart in the source and are kept apart here.

Columns and labels:
UM-UC-14 cells [1] = assay: MTT vitality assay, 72 h; assay type: cell-based, human; conditions: TFA up to 25 μM
Procedure: The sensitizing effect in this cell model was more pronounced for Co(acac)2LPonvs.Co(Meacac)2LPon reflecting the differences in the reduction potentials. Purification of the novel compounds was performed in the presence of 0.1% TFA, leading to the respective TFA salts.
As mentioned above, two stereoisomers of Co(acac)2LPon could be isolated. To clarify, whether there are differences in their anticancer activity, they were analyzed (in addition to the isomeric mixture) in UM-UC-14 cells by MTT assay. […] Accordingly, values for the isomeric mixture positioned intermediate. As expected, both stereoisomers and the isomeric mixture were distinctly activated by hypoxic conditions. The moderately higher activity of isomer 1 remained also under hypoxic conditions (Fig. S12A ^†). […]
Cells were seeded (3–7 × 10^4 cells per well) in 96-well plates and after 24 h recovery treated with increasing concentrations of compounds in triplicates. After 72 h drug exposure under normoxic or hypoxic cell culture conditions (0.1% O2) (ProOx Model C21 system, BioSpherix), the proportion of viable cells was determined by 3-(4,5-dimethylthiazol-2-yl)-2,5-diphenyltetrazolium bromide (MTT)-vitality assay (EZ4U, Biomedica, Vienna, Austria) or by luminescence assay based on adenosine triphosphate quantification (CellTiter-Glo, Promega, Madison, Wisconsin) following the manufacturer's recommendations. […]

K-562 cells = assay: cell-associated LPon fluorescence by flow cytometry (ligand release); assay type: cell-based, human; conditions: 24 h, 10 μM, normoxic
Procedure: Prior to the evaluation of the anticancer activity of our novel derivatives in cell culture models, we examined the stability of Co(acac)2LPon and Co(Meacac)2LPon in the presence of cells under normoxic conditions. The stability was determined by the appearance of LPon-associated fluorescence (vide supra) in BCR-ABL-driven K-562 leukemia cells via flow cytometry. […] Despite significant LPon-release from the two complexes over time (up to 24 h), in case of Co(Meacac)2LPon cell-associated fluorescence remained more than 7.5-fold lower after 24 h as compared to the free ligand.
Next, the impact of hypoxia on the stability of our novel derivatives was evaluated by monitoring intracellular fluorescence intensities under normoxic (21% O2) vs. hypoxic (0.1% O2) conditions. […] Hypoxic fluorescence activation in case of both cobalt(III) complexes was time-dependent, reaching significance after 6 h of compound incubation and resulting in 2- to 4-fold higher intensities.
Cells were seeded (1 × 10^6 cells per well) in 96-well plates, dissolved compounds were added and cells were incubated under normoxic or hypoxic cell culture conditions. Samples were measured on a BD LSRFortessa X-20 cell analyzer high throughput sampler (HTS) (BD Biosciences, East Rutherford, NJ, USA). Compound fluorescence was detected using 405 nm excitation and pacific blue (450/50 nm) band pass emission filters. […]

[2] = serum stability in fetal calf serum (HPLC-MS); assay type: in vitro ADME; conditions: 37 °C
Procedure: Therefore, we only investigated the stability of the novel complexes in fetal calf serum (FCS). As reference again Co(acac)2LEGFR[26] was included. The complexes were dissolved in 50 mM phosphate puffer and mixed 1 : 10 with fetal calf serum (FCS; buffered with 150 mM phosphate buffer to keep a stable pH of 7.4) to a final concentration of 50 μM. The samples were incubated at 37 °C and after 0, 2, 4, 6, 24 and 26 h extracted with acetonitrile and measured by HPLC-MS. […] This indeed confirms, that by avoiding the direct attachment of the ethylenediamine moiety to an aromatic ring system, complexes with much higher stability can be generated. Since no distinct difference in stability between Co(acac)2LPon and Co(Meacac)2LPon within 26 h could be observed, measurements were repeated up to 72 h.
For serum stability measurements, 135 μL FCS, buffered with 150 mM phosphate (Na2HPO4/NaH2PO4) to maintain a pH value of 7.4, were mixed with 15 μL of a 500 μM stock solution of the respective complex in 50 mM phosphate buffer to reach a final concentration of 50 μM. The samples were incubated at 37 °C. At different time points to 20 μL serum 40 μL of ACN were added. After vigorously shaking for 2 min the suspension was centrifuged at 6000 rpm for 10 min. The supernatant was taken with a syringe and directly measured via HPLC-MS. The samples were analyzed on an Agilent 1260 Infinity system using a Waters Atlantis T3 column (150 mm × 4.6 mm) coupled to a Bruker Amazon SL ESI-IT mass spectrometer. Water and acetonitrile (both containing 0.1% formic acid) were used as eluents with a gradient of 1–99% acetonitrile within 29 min.

cyclic voltammetry = assay type: physicochemical; conditions: DMF, 0.2 M [n-Bu4N][BF4], 1.5 mM complex, scan rate 100 mV s^-1
Procedure: Since the redox potential is a crucial characteristic for the activation of cobalt(III)-based prodrugs systems, we investigated the novel complexes by cyclic voltammetry in comparison to Co(acac)2LEGFR. Measurements were performed in dimethylformamide (DMF) (+0.2 M [n-Bu4N][BF4]) at a scan speed of 100 mV s^−1. […] Even at a higher scan speed of 1000 mV s^−1, the redox processes were still completely irreversible for all complexes (Fig. S5 ^†).
The compounds were dissolved in DMF (+0.2 M [n-Bu4N][BF4]) to obtain a final concentration of 1.5 mM. Electrochemical experiments were conducted on an EG&G PARC 273A potentiostat/galvanostat with a scan rate of 100–1000 mV s^−1 at room temperature. Argon was bubbled through the solution before every measurement to remove oxygen. A three-electrode configuration cell was used with a glassy carbon electrode as working electrode, which was polished before every measurement. The reference electrode was Ag/Ag^+/ACN (10 mM AgNO3) and the auxiliary electrode was a platinum wire. The potentials were referenced to an internal standard redox couple of ferrocenium/ferrocene and calculated to the NHE (E1/2 = +0.72 V vs. NHE).[63] […] Redox potentials measured relative to the Ag/AgCl/KCl (3.5 M) reference electrode and converted to the NHE using +0.205 V. Measurements were at least repeated three times and the mean values were calculated.

[3] = system: BCR-ABL-positive K-562 leukemic cells; assay: MTT vitality assay, 72 h, normoxic vs hypoxic; assay type: cell-based; conditions: Homo sapiens, K562, 72 h, printed in picture Fig. 9A, read-out: IC50, K-562 cell viability
Procedure: In case of hypoxic cell culture conditions, plated and treated cells were incubated at 37 °C, 5% CO2 and 0.1% O2 (ProOx Model C21 system, BioSpherix) in humidified incubators for the indicated time point before analysis. All investigated compounds were dissolved in dimethyl sulfoxide (DMSO) as 10 mM stock solutions and were stored at −20 °C. Dilutions in culture media supplemented with 10% fetal calf serum were made immediately before the experiments at the indicated concentrations. Corresponding dilutions of DMSO were used as untreated vehicle controls.
Cells were seeded (3–7 × 10^4 cells per well) in 96-well plates and after 24 h recovery treated with increasing concentrations of compounds in triplicates. After 72 h drug exposure under normoxic or hypoxic cell culture conditions (0.1% O2) (ProOx Model C21 system, BioSpherix), the proportion of viable cells was determined by 3-(4,5-dimethylthiazol-2-yl)-2,5-diphenyltetrazolium bromide (MTT)-vitality assay (EZ4U, Biomedica, Vienna, Austria) or by luminescence assay based on adenosine triphosphate quantification (CellTiter-Glo, Promega, Madison, Wisconsin) following the manufacturer's recommendations. […] MTT-derived cytotoxicity was expressed as IC50 values calculated from full dose–response curves using GraphPad Prism software (La Jolla, CA).

[4] = system: p-ERK1/2 and p-S6 in K-562 cells; assay: western blot of downstream signalling, 12 h; assay type: cell-based, human; conditions: K-562, 12 h, western blot
Procedure: Fig. 10 Impact of the cobalt(III) complexes on the ERK1/2 and S6 under normoxic and hypoxic conditions. K-562 cells were treated with the compounds, after 12 h cell lysates were prepared and protein expression as well as phosphorylation levels of downstream pathways (p-ERK1/2 and p-S6) analyzed by western blotting. One representative experiment out of three is shown. The ratio of phosphorylated to total protein is given between the respective lanes.
K-562 cells were plated (5 × 10^5 cells per well) in 6-well plates and allowed to recover for 24 h. Subsequently, the cells were treated with the drugs in different concentrations. After 12 h cells were harvested, proteins were isolated, resolved by sodium dodecyl sulfate polyacrylamide gel electrophoresis (SDS/PAGE), and transferred onto a polyvinylidene difluoride membrane for western blotting. The following antibodies were used: ERK1/2 (p44/42) rabbit monoclonal antibody (mAb) (137F5, #4695), phospho-ERK1/2 rabbit mAb (Thr202/Tyr204) (20G11, #4376), phospho-S6 rabbit pAb (Ser240/244, #2215) (Cell Signaling Technology, Beverly, MA, USA), S6 mouse mAb (C-8. #sc-74459) (Santa Cruz Biotechnology, TX, USA) and β-actin mouse mAb (#A5441, Sigma). All primary antibodies were used in 1 : 1000 dilutions (in Tris-buffered saline containing 0.1% Tween20 (TBST) + 3% bovine serum albumin (BSA)). Secondary goat anti-mouse-IgG (Fc specific)-peroxidase antibody (#A0168, Sigma) and horseradish peroxidase(HRP)-labeled mouse anti-rabbit IgG (#sc-2357, Santa Cruz Biotechnology) were used at working dilutions of 1 : 10 000 (in TBST + 1% BSA).

UM-UC-14 cells [5] = assay: ligand release by UV fluorescence microscopy; assay type: cell-based, human; conditions: 10 μM, 24 h, UM-UC-14, fluorescence microscopy
Procedure: The enhanced stability of Co(acac)2LPon under normoxia and its hypoxia-induced ligand release was subsequently confirmed by fluorescence microscopy. Fluorescence intensities indicated a ∼2.8-fold decreased stability of the cobalt(III) complex under hypoxic vs. normoxic cell culture conditions.
UM-UC-14 cells were seeded (2.5 × 10^5 cells per well) in 12-well plates and after 24 h recovery treated with 10 μM of compounds. After 24 h incubation, the drug solutions were removed, cells were washed with PBS and microphotographs of the different treatments were taken using UV fluorescence microscopy (Nikon Eclipse Ti2 microscope with a DAPI filter and a high-pressure mercury lamp) and a 20× objective. The level of cellular fluorescence was determined from fluorescence microscopy images using ImageJ software.
Figure S9: Ligand release of Co(acac)2LPon under normoxic and hypoxic cell culture conditions in comparison to LPon using UV fluorescence microscopy. UM-UC-14 cells were incubated with 10 µM of compounds for 24 h. Images of the different treatments were taken by UV fluorescence microcopy (20X objective) and the corrected total cell fluorescence was evaluated using ImageJ software. Data in Figure S9B are given as means ± SD of ten analyzed microphotographs per compound. Statistical significance was calculated by unpaired t test with p < .05(*). […]

ABL1 = ABL1 (Homo sapiens, UniProt P00519); assay: cell-free kinase inhibition assay (Z'-LYTE, SelectScreen); assay type: biochemical; conditions: 10-fold excess of ATP, 1% DMSO, read-out: IC50 against ABL1
Sequence of ABL1 (P00519 whole entry): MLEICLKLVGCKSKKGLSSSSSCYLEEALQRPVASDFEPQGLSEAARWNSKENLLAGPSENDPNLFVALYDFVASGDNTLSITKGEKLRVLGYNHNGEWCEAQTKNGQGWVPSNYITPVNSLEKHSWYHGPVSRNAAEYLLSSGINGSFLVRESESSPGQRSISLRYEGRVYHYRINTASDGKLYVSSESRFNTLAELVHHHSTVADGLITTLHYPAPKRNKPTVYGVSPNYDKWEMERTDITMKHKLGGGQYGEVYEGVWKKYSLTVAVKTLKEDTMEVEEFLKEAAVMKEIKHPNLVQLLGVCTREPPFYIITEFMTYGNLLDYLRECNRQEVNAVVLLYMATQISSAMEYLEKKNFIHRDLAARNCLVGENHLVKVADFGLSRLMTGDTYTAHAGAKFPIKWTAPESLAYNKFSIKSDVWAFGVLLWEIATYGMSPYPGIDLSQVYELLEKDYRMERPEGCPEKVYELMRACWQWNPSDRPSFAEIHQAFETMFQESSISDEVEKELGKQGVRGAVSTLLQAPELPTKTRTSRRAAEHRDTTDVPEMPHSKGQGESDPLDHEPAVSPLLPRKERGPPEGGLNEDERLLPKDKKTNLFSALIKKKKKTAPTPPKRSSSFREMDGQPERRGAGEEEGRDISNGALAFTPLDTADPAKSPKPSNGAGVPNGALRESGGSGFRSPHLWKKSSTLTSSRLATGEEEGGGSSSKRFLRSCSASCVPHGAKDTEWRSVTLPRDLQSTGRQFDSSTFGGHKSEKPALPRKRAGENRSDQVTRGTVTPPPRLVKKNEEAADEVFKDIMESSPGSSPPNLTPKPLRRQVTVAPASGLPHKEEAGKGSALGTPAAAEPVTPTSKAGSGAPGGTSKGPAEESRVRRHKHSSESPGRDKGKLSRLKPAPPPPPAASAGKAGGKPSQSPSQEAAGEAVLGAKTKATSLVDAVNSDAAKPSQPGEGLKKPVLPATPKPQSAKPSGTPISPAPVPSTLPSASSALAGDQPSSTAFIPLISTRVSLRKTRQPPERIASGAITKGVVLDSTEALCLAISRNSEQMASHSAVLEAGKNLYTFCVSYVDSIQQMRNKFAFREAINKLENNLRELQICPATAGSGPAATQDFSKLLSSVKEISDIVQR
Text: (§1) The test compounds were screened in a final concentration of 1% DMSO using the Z′-LYTE® Assay.

FGFR1 = FGFR1 (Homo sapiens, UniProt P11362); assay: as above; assay type: biochemical
Sequence of FGFR1 (P11362 22-822): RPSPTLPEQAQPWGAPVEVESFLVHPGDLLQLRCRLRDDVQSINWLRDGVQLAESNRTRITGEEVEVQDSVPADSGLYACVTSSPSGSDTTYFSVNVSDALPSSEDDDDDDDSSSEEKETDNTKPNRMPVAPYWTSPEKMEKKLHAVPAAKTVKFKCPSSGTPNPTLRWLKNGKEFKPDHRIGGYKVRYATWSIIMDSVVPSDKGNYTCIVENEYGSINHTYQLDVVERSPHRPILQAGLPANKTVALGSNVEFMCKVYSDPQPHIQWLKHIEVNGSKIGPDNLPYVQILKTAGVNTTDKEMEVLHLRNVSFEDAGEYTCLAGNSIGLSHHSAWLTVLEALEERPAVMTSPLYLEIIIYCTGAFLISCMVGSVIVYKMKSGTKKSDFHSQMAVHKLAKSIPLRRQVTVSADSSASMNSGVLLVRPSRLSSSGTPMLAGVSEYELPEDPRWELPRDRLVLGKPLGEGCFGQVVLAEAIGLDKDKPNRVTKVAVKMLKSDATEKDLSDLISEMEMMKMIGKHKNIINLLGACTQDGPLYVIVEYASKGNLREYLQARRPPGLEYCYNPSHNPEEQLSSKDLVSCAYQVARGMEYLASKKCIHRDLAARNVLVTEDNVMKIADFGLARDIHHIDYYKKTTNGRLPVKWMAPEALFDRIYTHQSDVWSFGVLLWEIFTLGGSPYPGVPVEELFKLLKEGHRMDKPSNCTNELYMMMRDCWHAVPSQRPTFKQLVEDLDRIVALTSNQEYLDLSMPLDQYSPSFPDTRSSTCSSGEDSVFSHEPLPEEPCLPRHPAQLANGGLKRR
Text: as §1

With `O=C(O)C(F)(F)F` [TFA, trifluoroacetic acid] the “impact on cell viability” value (UM-UC-14 cells [1]) was “no impact on cell viability”.

For `CC(=O)C(C)=C(C)[O-].CC(=O)C(C)=C(C)[O-].Cc1ccc(C(=O)Nc2ccc(CNCCN)c(C(F)(F)F)c2)cc1C#Cc1cnc2cccnn12.O=C(O)C(F)(F)F.[Co+3]` [Co(Meacac)2LPon, Bis(3-methyl-2,4-pentanedionato) N-(4-(((2-aminoethyl)amino)methyl)-3-(trifluoromethyl)phenyl)-3-(imidazo[1,2-b]pyridazin-3-ylethynyl)-4-methylbenzamide cobalt(III) 2,2,2-trifluoroacetate], the “cell-associated fluorescence, fold lower than the free ligand” value (K-562 cells) was “more than 7.5 fold”, the “intact complex remaining in FCS” value ([2]; 26 h, pH 7.4, 50 μM) was ~90% and the “intact compound remaining in FCS” value ([2]; 72 h, pH 7.4) was ~80%. The “cathodic peak potential (Co(III) to Co(II), irreversible)” value (cyclic voltammetry) was −442 mV vs. NHE.

With `Cc1ccc(C(=O)Nc2ccc(CNCCN)c(C(F)(F)F)c2)cc1C#Cc1cnc2cccnn12` [LPon, N-(4-(((2-Aminoethyl)amino)methyl)-3-(trifluoromethyl)phenyl)-3-(imidazo[1,2-b]pyridazin-3 ylethynyl)-4-methylbenzamide·3TFA] the IC50 ([3]; hypoxic (H, 0.1% O2)) was 3.67 nM, the IC50 ([3]; normoxic (N, 21% O2)) was 4.57 nM and the “activity on ERK1/2 and S6 phosphorylation, normoxic vs hypoxic” value [4] was “equally active under the two oxygen conditions”. The “fluorescence intensity change (decreased stability) hypoxic vs. normoxic” value (UM-UC-14 cells [5]) was “remained unaffected”, the IC50 (ABL1) was 1.93 nM and the “factor by which FGFR inhibition is weaker than ponatinib” value (FGFR1; cell-free IC50 ratio vs ponatinib) was ~5. The IC50 (FGFR1; cell-free, 10-fold excess of ATP, 1% DMSO, read-out: IC50 against FGFR1) was 25.9 nM.
